Legend:
Experiment in all cases: area under concentration-response curve (viability) (AUC (a.u.)); higher = less active
Settings in all cases: 48 h
CU-ACC1 = tested on: CU-ACC1
Method in brief: (§1)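 Three adrenocortical carcinoma cell lines were exposed for 48 h to library compounds at 11 concentrations in 1,536-well plates, then read by CellTiter-Glo luminescence. Signals were scaled per plate against vehicle and empty-well controls. From fitted concentration-response curves of inhibitory or non-responding classes alone, AC50 and area under the curve were obtained.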

CU-ACC2 = tested on: CU-ACC2
Method in brief: as §1

NCI-H295R = tested on: NCI-H295R
Method in brief: as §1

| SMILES | area under concentration-response curve (CU-ACC1) | area under concentration-response curve (CU-ACC2) | area under concentration-response curve (NCI-H295R) |
| --- | --- | --- | --- |
| CC(C)(C)Sc1c(CC(C)(C)C(=O)O)n(Cc2ccc(Cl)cc2)c2ccc(OCc3ccc4ccccc4n3)cc12 | 578 | 624 | 554 |
| C[C@]\12CCC(=O)\C=C1[C@@H]3C[C@@H]3[C@@H]4[C@@H]2CC[C@@]5(C)[C@H]4[C@@H]6C[C@@H]6[C@@]57CCC(=O)O7 | 509 | 602 | 549 |
| CC1COC2(CCN(CC2)C/3=N/C(=O)C4=CC(=CC(=C4S3)[N+]([O-])=O)C(F)(F)F)O1 (stereo not given) | 416 | 472 | 462 |
| CCCc1c(OCCCOc2ccc(OCC(=O)O)cc2)ccc(C(C)=O)c1O | 518 | 607 | 548 |
| CC(=O)Nc1nc(C)c(-c2ccc(Cl)c([S+](=O)([O-])NCCO)c2)s1 | 385 | 566 | 531 |
| Cn1cc(-c2ccc3ncc(Cc4ccc5ncccc5c4)n3n2)cn1 | 450 | 545 | 497 |
| O=P1(N(CCCl)CCCl)NCCCO1 (stereo not given) | 534 | 578 | 526 |
| CC1(C)O[C@@H]2C[C@H]3[C@@H]4CCC/5=C/C(=O)/C=C\[C@]5(C)[C@@]4(F)[C@@H](O)C[C@]3(C)[C@@]2(O1)C(=O)CO | 551 | 517 | 548 |
| C[C@@H]1CN[C@H]2[C@@H](C)[C@@]\3(CC[C@H]\4[C@@H]5C/C=C6/C[C@@H](O)CC[C@]6(C)[C@H]5CC4=C3C)O[C@@H]2C1 | 463 | 433 | 511 |
| Cc1cccc(-c2[nH]c(CNc3ccccc3F)nc2-c2ccc3ncnn3c2)n1 | 483 | 510 | 463 |
| C[C@@H]1CN(Cc2ccc(F)cc2)[C@@H](C)CN1C(=O)c1cc2c(C(=O)C(=O)N(C)C)cn(C)c2cc1Cl | 515 | 634 | 552 |
| CNc1nc(Nc2ccc(C(=O)N3CCOCC3)cc2OC)ncc1Cl | 511 | 607 | 555 |
| O=C(O)CSCC(=O)NC1CCSC1=O (stereo not given) | 379 | 415 | 405 |
| Cc1cc2c(cc1C1(c3ccc(C(=O)O)cn3)CC1)C(C)(C)CCC2(C)C | 504 | 598 | 514 |
| COc1ccc([C@@H](O)[C@@H](C)Oc2ccc([C@H]3O[C@H](c4ccc(O[C@H](C)[C@H](O)c5ccc(OC)c(OC)c5)c(OC)c4)[C@H](C)[C@H]3C)cc2OC)cc1OC | 269 | 575 | 479 |
| NC(CC1c2ccccc2Oc2ccccc21)(C(=O)O)C1CC1C(=O)O (stereo not given) | 530 | 621 | 512 |
| CCC1(c2ccc(N)cc2)CCC(=O)NC1=O (stereo not given) | 591 | 631 | 568 |
| CC(C)C/1=C(NC2=C(C=N[N]2C1=O)C#N)\C3=CC=CC=C3 | 497 | 580 | 480 |

| SMILES | area under concentration-response curve (CU-ACC1) | area under concentration-response curve (CU-ACC2) | area under concentration-response curve (NCI-H295R) |
| --- | --- | --- | --- |
| CC(C)(C#N)c1cc(Cn2cncn2)cc(C(C)(C)C#N)c1 | 461 | 574 | 537 |
| Cn1c(=O)c2c(ncn2C)n(C)c1=O | 479 | 533 | 498 |
| CCOC(=O)C(C)(C)Oc1ccc(Cl)cc1 | 451 | 453 | 444 |
| CC(C)n1cc(-c2ccc3c(c2)N(C)CC3)c2c(N[S+](=O)([O-])c3ccn(C)n3)ccnc21 | 516 | 638 | 568 |
| C[S+](=O)([O-])Oc1ccc2c(NC(N)=O)c(C(=O)c3ccc(Cl)cc3Cl)oc2c1 | 515 | 568 | 532 |
| CN1CCN2c3ncccc3Cc3ccccc3C2C1 (stereo not given) | 494 | 579 | 556 |
| CCCC(CCC)C(=O)NC/1=N/C(=O)N(/C=C1)[C@@H]2O[C@H](CO)[C@@H](O)C2(F)F | 496 | 481 | 543 |
| O=C1[C@H](CC[C@H](O)c2ccc(F)cc2)[C@@H](c2ccc(O)cc2)N1c1ccc(F)cc1 | 536 | 650 | 565 |
| CN(C)CC/C=C1/c2ccccc2COc2ccc(CC(=O)O)cc21 | 467 | 570 | 509 |
| CCN(C(=O)C/1=C(O)/C2=C(C=CC=C2Cl)N(C)C1=O)C3=CC=CC=C3 | 489 | 566 | 555 |
| CC(C)(F)C[C@H](N[C@@H](c1ccc(-c2ccc([S+](C)(=O)[O-])cc2)cc1)C(F)(F)F)C(=O)NC1(C#N)CC1 | 481 | 587 | 527 |
| C[C@H]1CNCCCN1[S+](=O)([O-])c1cccc2cncc(F)c12 | 530 | 589 | 551 |
| CCOC(=O)[C@H](CCc1ccccc1)N[C@@H](C)C(=O)N1[C@H](C(=O)O)C[C@@H]2CCC[C@@H]21 | 545 | 649 | 595 |
| Cc1[nH]nc(C(F)(F)F)c1Cc1sc2c(c1C(=O)N1C[C@](C)(O)CO1)c(=O)n(C)c(=O)n2C(C)C | 431 | 552 | 509 |
| OC1=CC2=C(C(=C1)O)C(=O)\C(=C(/O2)C3=CC(=C(O)C(=C3)O)O)O | 553 | 600 | 508 |
| CCCCCN(CCC12CC3CC(CC(C3)C1)C2)C(=O)NCCCc1ccncc1 | 472 | 519 | 453 |
| COC1=C(N2CCNC(C)C2)C(=CC3=C1N(\C=C(C(O)=O)/C3=O)C4CC4)F (stereo not given) | 543 | 609 | 509 |

Source: the supplement of paper PMC10949913
